Source: ChEMBL document CHEMBL5120750, “Bis-bibenzyls, Bibenzyls, and Terpenoids in 33 Genera of the Marchantiophyta (Liverworts): Structures, Synthesis, and Bioactivity” (2022)
≈ marks a conversion by molar mass, not a printed value.

Legend:
[1] = tested on: Saccharomyces cerevisiae; assay: Antibacterial activity against Saccharomyces cerevisiae; type: functional
[2] = tested on: Saccharomyces cerevisiae; assay: Bactericidal activity against Saccharomyces cerevisiae; type: functional

Row | MIC [1] | Compound | MBC [2]
1 | 0.98 µg/mL (≈ 2.22 µM) | Oc1cc2cc(c1O)Oc1ccc(cc1)CCc1cccc(O)c1Oc1cccc(c1)CC2 [MARCHANTIN A] | 0.98 µg/mL (≈ 2.22 µM)
2 | 0.98 µg/mL (≈ 2.21 µM) | Oc1cccc(CCc2ccc(Oc3cc(CCc4cccc(O)c4)cc(O)c3O)cc2)c1 [PERROTETTIN F] | 0.98 µg/mL (≈ 2.21 µM)
